Measurements reported in patent publication US5198358A, “Microorganism for producing C-31 desmethyl FR-900520 cyclic hemiketal immunosuppressant agent” (Merck & Co., Inc., priority 1991, dated 1993).
Where “and” joins values, the source holds several entries; their conditions need not be identical. Identical values can stand only once. Entries after “also recorded” stand apart in the source; their conditions may differ. Like-named read-outs stand apart in the source and are kept apart here.

Columns and labels:
[1] = biological target: T1, 31-O-desmethylimmunomycin O-methyltransferase (DIMT) (Streptomyces hygroscopicus, UniProt Q9KID5); test: S-adenosyl-L-methionine: 31-O-desmethylimmunomycin O-methyltransferase (DIMT) assay
T1 sequence (Q9KID5 1-260): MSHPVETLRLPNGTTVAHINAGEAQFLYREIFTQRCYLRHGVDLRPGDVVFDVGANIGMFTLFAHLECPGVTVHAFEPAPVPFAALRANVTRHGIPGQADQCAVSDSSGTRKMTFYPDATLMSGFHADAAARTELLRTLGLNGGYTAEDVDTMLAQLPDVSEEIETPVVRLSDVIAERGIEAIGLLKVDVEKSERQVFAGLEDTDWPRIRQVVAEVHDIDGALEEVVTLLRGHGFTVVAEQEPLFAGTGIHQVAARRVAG
Protocol: The assay was carried out in 1 ml. mixture containing 0.025 mM 31-desmethylimmunomycin, 1 mM MgSO4 and different quantities of the enzyme source in 50 mM phosphate buffer, pH 7.5. Reaction was initiated by the addition of 1 nmole of ^14 C-SAM (S-adenosyl-L-[methyl-^14 C] methionine with the specific activity of 46 mCi/mmole. Incubation of the complete mixture was carried out at 34° C. for 20 minutes and the reaction was terminated by the addition of ethyl acetate. Product of the reaction was extracted with 2 ml of ethyl acetate and 1 ml of the extract was used for TLC and HPLC analysis. For the analysis of the radioactive reaction product (immunomycin), the ethyl acetate extract was spiked with the standard immunomycin and subjected to the TLC with a plate having plastic support. The plastic sheet was developed in chloroform:methanol (9:1) and area showing standard immunomycin under UV-light was cut and the radioactivity in the cut-strip was measured. The amount of the product formed was calculated from the measured radioactivity. For the HPLC analysis of the product of the enzyme reaction, several enzymatic reaction mixtures were pooled and the extract was subjected to the TLC analysis as above. The area on the silica gel plate showing the band having an Rf value identical with the standard immunomycin was scraped and eluted with ethyl acetate. The ethyl acetate extract was washed with water, dried under nitrogen and the residue was subjected to the HPLC analysis on Partisil 5-ODS-3 column with acetonitrile:water:phosphoric acid (65:35:0.1) as the eluting solvent. One milliliter fractions were collected and a portion of each fraction was examined for the radioactivity.
Examination of the optimal temperature, pH and metal requirement of the DIMT activity was carried out on the enzyme preparation obtained from DEAE-Sepharose column. For kinetic analysis, a preparation which had been purified through a second MonoQ column chromatography was utilized.

[2] = tested on: Splenic T-cells stimulated with ionomycin + PMA; test: T-cell proliferation assay (ionomycin plus PMA induced T-cell stimulation); type: cell-based, mouse; details: for Inhibition of T-cell activation (result in words): T-cell proliferation assay
Protocol: Cells were pelleted by centrifugation at 1500 rpm for 8 minutes. Contaminating red cells were removed by treating the pellet with ammonium chloride lysing buffer (GIBCO) for 2 minutes at 4° C. Cold medium was added and cells were again centrifuged at 1500 rpm for 8 minutes. T lymphocytes were then isolated by separation of the cell suspension on nylon wool columns as follows: Nylon wool columns were prepared by packing approximately 4 grams of washed and dried nylon wool into 20 ml plastic syringes. The columns were sterilized by autoclaving at 250° F. for 30 minutes. Nylon wool columns were wetted with warm (37° C.) culture medium and rinsed with the same medium. Washed spleen cells resuspended in warm medium were slowly applied to the nylon wool. The columns were then incubated in an upright position at 37° C. for 1 hour. Non-adherent T lymphocytes were eluted from the columns with warm culture medium and the cell suspensions were spun as above.
The cell suspension was immediately distributed into 96 well flat-bottom microculture plates (Costar) at 200 μl/well. […] The proliferation of T lymphocytes was assessed by measurement of tritiated thymidine incorporation. After 44 hours of culturing, the cells were pulse-labelled with 2 μCi/well of tritiated thymidine (NEN, Cambridge, Mass.). After another 4 hours of incubation, cultures were harvested on glass fiber filters using a multiple sample harvester. Radioactivity of filter discs corresponding to individual wells was measured by standard liquid scintillation counting methods (Betacounter). Mean counts per minute of replicate wells were calculated and the results expressed as percent inhibition of tritiated thymidine uptake (proliferation) as follows: [formula]

[3] = reputed; EPO Publication No. 0184162; cited from earlier work
[4] = substrate: C[S+](CC[C@H](N)C(=O)[O-])C[C@H]1O[C@@H](n2cnc3c(N)ncnc32)[C@H](O)[C@@H]1O; test: purified protein, by the assay type; details: other: SAM as variable substrate, 25 umM 31-O-desmethylimmunomycin as cosubstrate; pH 7.5
Protocol: The assay was carried out in 1 ml. mixture containing 0.025 mM 31-desmethylimmunomycin, 1 mM MgSO4 and different quantities of the enzyme source in 50 mM phosphate buffer, pH 7.5. Reaction was initiated by the addition of 1 nmole of ^14 C-SAM (S-adenosyl-L-[methyl-^14 C] methionine with the specific activity of 46 mCi/mmole. Incubation of the complete mixture was carried out at 34° C. for 20 minutes and the reaction was terminated by the addition of ethyl acetate. Product of the reaction was extracted with 2 ml of ethyl acetate and 1 ml of the extract was used for TLC and HPLC analysis. For the analysis of the radioactive reaction product (immunomycin), the ethyl acetate extract was spiked with the standard immunomycin and subjected to the TLC with a plate having plastic support. The plastic sheet was developed in chloroform:methanol (9:1) and area showing standard immunomycin under UV-light was cut and the radioactivity in the cut-strip was measured. The amount of the product formed was calculated from the measured radioactivity. For the HPLC analysis of the product of the enzyme reaction, several enzymatic reaction mixtures were pooled and the extract was subjected to the TLC analysis as above. […] One milliliter fractions were collected and a portion of each fraction was examined for the radioactivity. […]

[5] = substrate: [H][C@@]1(/C=C(\C)[C@@]2([H])OC(=O)[C@]3([H])CCCCN3C(=O)C(=O)[C@]3(O)O[C@]([H])([C@@H](OC)C[C@@H](C)C/C(C)=C/[C@@H](CC)C(=O)C[C@H](O)[C@H]2C)[C@@H](OC)C[C@H]3C)CC[C@@H](O)[C@H](O)C1; test: purified protein, by the assay type; details: other: 31-O-desmethylimmunomycin as variable substrate, 40 uM SAM; Lineweaver-Burk; pH 7.5
[6] = Mus musculus, T-cell, HPLC purified samples, evaluated in the same set of experiments, read-out: IC50 (biological activity)

In the case of `CC[C@@H]1/C=C(\C)C[C@H](C)C[C@H](OC)[C@H]2O[C@@](O)(C(=O)C(=O)N3CCCC[C@H]3C(=O)O[C@H](/C(C)=C/[C@@H]3CC[C@@H](O)[C@H](O)C3)[C@H](C)[C@@H](O)CC1=O)[C@H](C)C[C@@H]2OC` [31-O-desmethylimmunomycin], the “apparent Vmax” value ([1]; 31-O-desmethylimmunomycin as variable substrate, 40 uM SAM, Lineweaver-Burk) is reported as 45.5 nmol/h/mg.

For `CC[C@@H]1C=C2COC1(O)C[C@H](O)[C@@H](C)[C@@H](/C(C)=C/[C@@H]1CC[C@@H](O)[C@H](OC)C1)OC(=O)[C@@H]1CCCCN1C(=O)C(=O)[C@]1(O)O[C@H]([C@@H](OC)C[C@@H](C)C2)[C@@H](OC)C[C@H]1C` [Compound II], the IC50 [2, 6] was ~6 nM and the “Inhibition of T-cell activation (result in words)” value [2] was “positive inhibition of T-cell activation; also recorded: positive results”.

In the case of `CC[C@@H]1C=C2COC1(O)C[C@H](O)[C@@H](C)[C@@H](/C(C)=C/[C@@H]1CC[C@@H](O)[C@H](O)C1)OC(=O)[C@@H]1CCCCN1C(=O)C(=O)[C@]1(O)O[C@H]([C@@H](OC)C[C@@H](C)C2)[C@@H](OC)C[C@H]1C` [Compound I], the inhibition at 0.0025 µM ([2]; Mus musculus, T-cell, 2.5 nM, tritiated thymidine uptake, harvest at 48 hours, read-out: Percent of Inhibition) is reported as 0%, the inhibition at 0.0049 µM ([2]; Mus musculus, T-cell, 4.9 nM, tritiated thymidine uptake, harvest at 48 hours, read-out: Percent of Inhibition) is reported as 0% and the inhibition at 0.0099 µM ([2]; Mus musculus, T-cell, 9.9 nM, tritiated thymidine uptake, harvest at 48 hours, read-out: Percent of Inhibition) is reported as 39%. For the same molecule, the inhibition at 0.0197 µM ([2]; Mus musculus, T-cell, 19.7 nM, tritiated thymidine uptake, harvest at 48 hours, read-out: Percent of Inhibition) was 65%, the inhibition at 0.0394 µM ([2]; Mus musculus, T-cell, 39.4 nM, tritiated thymidine uptake, harvest at 48 hours, read-out: Percent of Inhibition) was 89% and the inhibition at 0.0788 µM ([2]; Mus musculus, T-cell, 78.8 nM, tritiated thymidine uptake, harvest at 48 hours, read-out: Percent of Inhibition) was 95%. The inhibition at 0.1576 µM ([2]; Mus musculus, T-cell, 157.6 nM, tritiated thymidine uptake, harvest at 48 hours, read-out: Percent of Inhibition) was 98%, the inhibition at 0.3152 µM ([2]; Mus musculus, T-cell, 315.2 nM, tritiated thymidine uptake, harvest at 48 hours, read-out: Percent of Inhibition) was 98% and the IC50 [2, 6] was ~11 nM. The IC50 ([2]; Mus musculus, T-cell proliferation, Example 4, read-out: IC50) was 0.0115 µg/mL and 14.5 nM, the “Inhibition of T-cell activation (result in words)” value [2] was “positive inhibition of T-cell activation; also recorded: antagonist activity versus the FK-506 immunosuppressive activity” and the “Effect of IL2 on inhibition of T-cell proliferation” value ([2]; addition of 50 units/ml of recombinant IL2 at the initiation of culture) was “reversed”.

In the case of `O=C(O)CN(CCN(CC(=O)O)CC(=O)O)CC(=O)O` [EDTA], the “Inhibition of DIMT activity” value [1] is reported as “major inhibition” and the “Inhibition of DIMT activity” value ([1]; crude extract) is reported as “completely inhibited”.

For `C=CC[C@@H]1/C=C(\C)C[C@H](C)C[C@H](OC)[C@H]2O[C@@](O)(C(=O)C(=O)N3CCCC[C@H]3C(=O)O[C@H](/C(C)=C/[C@@H]3CC[C@@H](O)[C@H](OC)C3)[C@H](C)[C@@H](O)CC1=O)[C@H](C)C[C@@H]2OC` [FR900506, reference compound], the inhibition at 0.01 µg/mL ([2]; Mus musculus, T-cell, 10 ng/ml, standard) is given as 99% and the “Effectiveness relative to cyclosporin” value [3] is given as 100 times.

For `CC[C@@H]1/C=C(\C)C[C@H](C)C[C@H](OC)[C@H]2O[C@@](O)(C(=O)C(=O)N3CCCC[C@H]3C(=O)O[C@H](/C(C)=C/[C@@H]3CC[C@@H](O)[C@H](OC)C3)[C@H](C)[C@@H](O)CC1=O)[C@H](C)C[C@@H]2OC` [FR-900520, 17-Ethyl-1,14-dihydroxy-12-[2-(4-hydroxy-3-methoxycyclohexyl)-1-methylvinyl]-23-25-dimethoxy-13,19,21,27-tetramethyl-11,28-dioxa-4-azatricyclo [22.3.1.0^4,9]octacos-18-ene-2,3,10,16-tetraone], the IC50 [2, 6] was ~1 nM.

With `Nc1ncnc2c1ncn2[C@@H]1O[C@H](CSCC[C@H](N)C(=O)O)[C@@H](O)[C@H]1O` [S-adenosyl-homocysteine (SAH), S-adenosyl-homocysteine] the “Inhibition of DIMT activity” value [1] was “major inhibition”.

For `N.N.O=S(=O)(O)O` [ammonium sulfate], the “Inhibition of DIMT activity” value ([1]; crude extract) was “inhibited”.

With `Nc1ncnc2c1ncn2[C@@H]1O[C@H](C[C@@H](N)CC[C@H](N)C(=O)O)[C@@H](O)[C@H]1O` [sinefungin] the “Inhibition of DIMT activity” value [1] was “major inhibition”.

B1: 31-O-desmethylimmunomycin O-methyltransferase (DIMT) (Streptomyces hygroscopicus subsp. ascomyceticus) (protein)
chain: T1 sequence (Q9KID5 1-260)
Work on B1 yielded a Km [4] of 12.5 µM, a Vmax [4] of 100 nmol/h/mg and a Km [5] of 11 µM.
